Experimental data as given in PMC5218480 (PLoS ONE, 2017).

System: MV-4-11 cells
Assay: Gene expression microarray analysis (Affymetrix PrimeView) and GSEA
Format: cell-based, human
Design: RFU PODN (11730768_x_at) / Fold change /veh PODN (11730768_x_at) / RFU LINC00158 (11744669_a_at) / Fold change /veh LINC00158 (11744669_a_at) / RFU DUSP10 (11751237_a_at) / Fold change /veh DUSP10 (11751237_a_at) / RFU ID3 (11757404_x_at) / Fold change /veh ID3 (11757404_x_at) / RFU PLEKHG5 (11737974_s_at) / Fold change /veh PLEKHG5 (11737974_s_at) / RFU LRRC4B (11730491_at) / Fold change /veh LRRC4B (11730491_at) / RFU GIMAP4 (11747438_a_at) / Fold change /veh GIMAP4 (11747438_a_at) / RFU KRT8 (11758183_x_at) / Fold change /veh KRT8 (11758183_x_at) / RFU CNN1 (11734310_a_at) / Fold change /veh CNN1 (11734310_a_at) / RFU VPS37D (11726825_at) / Fold change /veh VPS37D (11726825_at) / RFU C10orf10 (11716522_x_at) / Fold change /veh C10orf10 (11716522_x_at) / RFU KIR2DL2 /// KIR2DL4 /// KIR2DL5A /// KIR2DL5B /// KIR2DS1 /// KIR2DS2 /// KIR2DS3 /// KIR2DS4 /// KIR3DL3 /// KIR3DL3 /// KIR3DS1 (11738374_at) / Fold change /veh KIR2DL2 /// KIR2DL4 /// KIR2DL5A /// KIR2DL5B /// KIR2DS1 /// KIR2DS2 /// KIR2DS3 /// KIR2DS4 /// KIR3DL3 /// KIR3DL3 /// KIR3DS1 (11738374_at) / RFU C1QL1 (11718748_at) / Fold change /veh C1QL1 (11718748_at) / RFU TMPRSS4 (11747572_a_at) / Fold change /veh TMPRSS4 (11747572_a_at) / RFU HAMP (11756126_x_at) / Fold change /veh HAMP (11756126_x_at) / RFU RNFT2 (11725882_a_at) / Fold change /veh RNFT2 (11725882_a_at) / RFU NR4A2 (11747474_a_at) / Fold change /veh NR4A2 (11747474_a_at) / RFU ABCC12 (11746883_a_at) / Fold change /veh ABCC12 (11746883_a_at) / RFU TMEM136 (11760407_x_at) / Fold change /veh TMEM136 (11760407_x_at) / RFU CLDN22 /// WWC2 (11732394_at) / Fold change /veh CLDN22 /// WWC2 (11732394_at) / RFU HLA-DPB1 (11760878_x_at) / Fold change /veh HLA-DPB1 (11760878_x_at) / RFU SPINT1 (11716480_a_at) / Fold change /veh SPINT1 (11716480_a_at) / RFU GAP43 (11754022_s_at) / Fold change /veh GAP43 (11754022_s_at) / RFU A4GNT (11735810_at) / Fold change /veh A4GNT (11735810_at) / RFU PRB3 (11715151_x_at) / Fold change /veh PRB3 (11715151_x_at) / RFU TUBB4B (11761932_at) / Fold change /veh TUBB4B (11761932_at) / RFU CAPN14 (11732068_a_at) / Fold change /veh CAPN14 (11732068_a_at) / RFU TMCC2 (11721928_a_at) / Fold change /veh TMCC2 (11721928_a_at) / RFU IRGQ (11745062_a_at) / Fold change /veh IRGQ (11745062_a_at) / RFU FAM174B (11720279_a_at) / Fold change /veh FAM174B (11720279_a_at) / RFU TMPRSS4 (11748680_a_at) / Fold change /veh TMPRSS4 (11748680_a_at) / RFU FAM212B (11763350_a_at) / Fold change /veh FAM212B (11763350_a_at) / RFU PLEKHG5 (11743358_a_at) / Fold change /veh PLEKHG5 (11743358_a_at) / RFU ZSCAN30 (11745921_a_at) / Fold change /veh ZSCAN30 (11745921_a_at) / RFU CMKLR1 (11741424_a_at) / Fold change /veh CMKLR1 (11741424_a_at) / RFU LOC101060620 /// MAPK8IP1 (11723275_at) / Fold change /veh LOC101060620 /// MAPK8IP1 (11723275_at) / RFU SPTSSB (11747773_x_at) / Fold change /veh SPTSSB (11747773_x_at) / RFU PRSS12 (11739890_at) / Fold change /veh PRSS12 (11739890_at) / RFU BIN1 (11741810_x_at) / Fold change /veh BIN1 (11741810_x_at) / RFU WNT11 (11732464_a_at) / Fold change /veh WNT11 (11732464_a_at) / RFU C10orf10 (11716521_a_at) / Fold change /veh C10orf10 (11716521_a_at) / RFU C5orf56 (11738089_at) / Fold change /veh C5orf56 (11738089_at) / RFU CYB561 (11721691_x_at) / Fold change /veh CYB561 (11721691_x_at) / RFU ANKRD19P (11752326_a_at) / Fold change /veh ANKRD19P (11752326_a_at) / RFU OR2T12 /// OR2T33 /// OR2T8 (11738714_s_at) / Fold change /veh OR2T12 /// OR2T33 /// OR2T8 (11738714_s_at) / RFU VCAN (11748164_a_at) / Fold change /veh VCAN (11748164_a_at) / RFU JSRP1 (11732532_at) / Fold change /veh JSRP1 (11732532_at) / RFU KRTAP10-11 (11738290_x_at) / Fold change /veh KRTAP10-11 (11738290_x_at) / RFU MYO3A (11730013_a_at) / Fold change /veh MYO3A (11730013_a_at) / RFU EBF3 (11725865_a_at) / Fold change /veh EBF3 (11725865_a_at) / RFU CAMK2N1 (11719241_x_at) / Fold change /veh CAMK2N1 (11719241_x_at) / RFU C5orf56 (11738088_a_at) / Fold change /veh C5orf56 (11738088_a_at) / RFU OLFML3 (11715873_a_at) / Fold change /veh OLFML3 (11715873_a_at) / RFU LOC100653217 /// NTM (11731650_a_at) / Fold change /veh LOC100653217 /// NTM (11731650_a_at) / RFU MAPK11 (11762145_a_at) / Fold change /veh MAPK11 (11762145_a_at) / RFU FIZ1 (11724087_x_at) / Fold change /veh FIZ1 (11724087_x_at) / RFU OASL (11726364_x_at) / Fold change /veh OASL (11726364_x_at) / RFU SOX15 (11748057_x_at) / Fold change /veh SOX15 (11748057_x_at) / RFU CD79A (11719716_a_at) / Fold change /veh CD79A (11719716_a_at) / RFU HIST1H1D (11736915_at) / Fold change /veh HIST1H1D (11736915_at) / RFU CASKIN2 (11723855_a_at) / Fold change /veh CASKIN2 (11723855_a_at) / RFU LOC730098 (11760151_x_at) / Fold change /veh LOC730098 (11760151_x_at) / RFU OR4N2 (11742367_at) / Fold change /veh OR4N2 (11742367_at) / RFU PRRT2 (11749266_a_at) / Fold change /veh PRRT2 (11749266_a_at) / RFU SNX32 (11753110_a_at) / Fold change /veh SNX32 (11753110_a_at) / RFU CDHR5 (11726645_a_at) / Fold change /veh CDHR5 (11726645_a_at) / RFU RCAN1 (11760418_a_at) / Fold change /veh RCAN1 (11760418_a_at) / RFU FAM167A (11723789_a_at) / Fold change /veh FAM167A (11723789_a_at) / RFU FAM26E (11764081_at) / Fold change /veh FAM26E (11764081_at) / RFU ISYNA1 (11749810_s_at) / Fold change /veh ISYNA1 (11749810_s_at) / RFU ACY1 (11761880_at) / Fold change /veh ACY1 (11761880_at) / RFU 11764098_at / Fold change /veh 11764098_at / RFU SAMD14 (11745864_x_at) / Fold change /veh SAMD14 (11745864_x_at) / RFU NPB (11741838_a_at) / Fold change /veh NPB (11741838_a_at) / RFU TMPRSS6 (11731388_a_at) / Fold change /veh TMPRSS6 (11731388_a_at) / RFU KRTAP10-2 (11738614_at) / Fold change /veh KRTAP10-2 (11738614_at) / RFU ARHGAP8 /// PRR5-ARHGAP8 (11727945_x_at) / Fold change /veh ARHGAP8 /// PRR5-ARHGAP8 (11727945_x_at) / RFU KRTAP5-7 /// NADSYN1 (11734609_at) / Fold change /veh KRTAP5-7 /// NADSYN1 (11734609_at) / RFU RASL12 (11751679_a_at) / Fold change /veh RASL12 (11751679_a_at) / RFU CDKN2B (11736163_a_at) / Fold change /veh CDKN2B (11736163_a_at) / RFU PRF1 (11729649_at) / Fold change /veh PRF1 (11729649_at) / RFU, ZNF638 /// ZNF638-IT1 / Fold change vs veh, ZNF638 /// ZNF638-IT1 / RFU, PANK3 / Fold change vs veh, PANK3 / RFU, SH3YL1 / Fold change vs veh, SH3YL1 / RFU, ZEB2 / Fold change vs veh, ZEB2 / RFU, NRIP1 / Fold change vs veh, NRIP1 / RFU, PTTG1IP / Fold change vs veh, PTTG1IP / RFU, CAPN2 / Fold change vs veh, CAPN2 / RFU, MED14 / Fold change vs veh, MED14 / RFU, SNORA58 / Fold change vs veh, SNORA58 / RFU, C1orf63 / Fold change vs veh, C1orf63 / RFU, LRRFIP1 / Fold change vs veh, LRRFIP1 / RFU, NDUFAF7 / Fold change vs veh, NDUFAF7 / RFU, SLC12A2 / Fold change vs veh, SLC12A2 / RFU, IBTK / Fold change vs veh, IBTK / RFU, ESF1 / Fold change vs veh, ESF1 / Fold change vs veh, TMEM50B / RFU, TAOK1 / Fold change vs veh, TAOK1 / RFU, ACBD3 / Fold change vs veh, ACBD3 / RFU, TMA16 / Fold change vs veh, TMA16 / RFU, RWDD3 / Fold change vs veh, RWDD3 / RFU, BCAT1 / Fold change vs veh, BCAT1 / RFU, EDEM3 / Fold change vs veh, EDEM3 / RFU, TMEM33 / Fold change vs veh, TMEM33 / RFU, WDR75 / Fold change vs veh, WDR75 / RFU, AHCTF1 / Fold change vs veh, AHCTF1 / RFU, TFRC / Fold change vs veh, TFRC / RFU, ZDHHC17 / Fold change vs veh, ZDHHC17 / RFU, NOM1 / Fold change vs veh, NOM1 / RFU, ARL8B / Fold change vs veh, ARL8B / RFU, ZBTB11 / Fold change vs veh, ZBTB11 / RFU, TAMM41 / Fold change vs veh, TAMM41 / RFU, KIAA1704 /// LOC100996395 / Fold change vs veh, KIAA1704 /// LOC100996395 / RFU, ING1 / Fold change vs veh, ING1 / RFU, TRMT61B / Fold change vs veh, TRMT61B / RFU, FUBP3 / Fold change vs veh, FUBP3 / RFU, TP53 / Fold change vs veh, TP53 / RFU, TNKS2 / Fold change vs veh, TNKS2 / RFU, ZFP14 / Fold change vs veh, ZFP14 / RFU, ACTR2 / Fold change vs veh, ACTR2 / RFU, PPP3R1 / Fold change vs veh, PPP3R1 / RFU, PIK3R1 / Fold change vs veh, PIK3R1 / RFU, HNRNPA1 / Fold change vs veh, HNRNPA1 / RFU, RNF170 / Fold change vs veh, RNF170 / RFU, ZNF28 / Fold change vs veh, ZNF28 / RFU, RNGTT / Fold change vs veh, RNGTT / RFU, OGT / Fold change vs veh, OGT / RFU, BRD1 / Fold change vs veh, BRD1 / RFU, MARS / Fold change vs veh, MARS / RFU, ZNF655 / Fold change vs veh, ZNF655 / RFU, FAHD1 / Fold change vs veh, FAHD1 / RFU, BDP1 / Fold change vs veh, BDP1 / RFU, LRRCC1 / Fold change vs veh, LRRCC1 / RFU, ARID1A / Fold change vs veh, ARID1A / RFU, ZNF146 / Fold change vs veh, ZNF146 / RFU, ZNF330 / Fold change vs veh, ZNF330 / RFU, GPN3 / Fold change vs veh, GPN3 / RFU, C9orf123 / Fold change vs veh, C9orf123 / RFU, N4BP2L2 / Fold change vs veh, N4BP2L2 / RFU, ARFIP1 / Fold change vs veh, ARFIP1 / RFU, FAM179B / Fold change vs veh, FAM179B / RFU, BCL10 / Fold change vs veh, BCL10 / RFU, UHRF1BP1L / Fold change vs veh, UHRF1BP1L / RFU, BET1 / Fold change vs veh, BET1 / RFU, CNOT2 / Fold change vs veh, CNOT2 / RFU, ZNF268 / Fold change vs veh, ZNF268 / Fold change vs veh, ZNF507 / RFU, DGCR2 / Fold change vs veh, DGCR2 / RFU, WDSUB1 / Fold change vs veh, WDSUB1 / Fold change vs veh, HSP90B1 /// MIR3652 / RFU, ADSS / Fold change vs veh, ADSS / RFU, GK / Fold change vs veh, GK / RFU, ZNF148 / Fold change vs veh, ZNF148 / RFU, TAF9 / Fold change vs veh, TAF9 / RFU, SLC1A5 / Fold change vs veh, SLC1A5 / RFU, SLMO2 / Fold change vs veh, SLMO2 / RFU, ABCC4 / Fold change vs veh, ABCC4 / RFU, LOC101060439 /// RAP1B / Fold change vs veh, LOC101060439 /// RAP1B / RFU, RFX7 / Fold change vs veh, RFX7 / RFU, GTPBP10 / Fold change vs veh, GTPBP10 / RFU, CNEP1R1 / Fold change vs veh, CNEP1R1 / RFU, BIVM-ERCC5 /// ERCC5 / Fold change vs veh, BIVM-ERCC5 /// ERCC5 / RFU, ILF3 / Fold change vs veh, ILF3 / RFU 11762660_at / Fold change /veh 11762660_at / RFU VCAN (11757783_s_at) / Fold change /veh VCAN (11757783_s_at) / RFU DDX43 (11728927_at) / Fold change /veh DDX43 (11728927_at) / RFU KRT8 (11758188_x_at) / Fold change /veh KRT8 (11758188_x_at) / RFU NKD1 (11759106_at) / Fold change /veh NKD1 (11759106_at) / RFU SRD5A1 (11742802_a_at) / Fold change /veh SRD5A1 (11742802_a_at) / RFU TPSAB1 /// TPSB2 (11721975_s_at) / Fold change /veh TPSAB1 /// TPSB2 (11721975_s_at) / RFU GSTM3 (11746129_a_at) / Fold change /veh GSTM3 (11746129_a_at) / RFU IL23R (11737362_x_at) / Fold change /veh IL23R (11737362_x_at) / RFU TMEM51 (11727254_a_at) / Fold change /veh TMEM51 (11727254_a_at) / RFU PIWIL2 (11732686_x_at) / Fold change /veh PIWIL2 (11732686_x_at) / RFU ORM1 (11744905_x_at) / Fold change /veh ORM1 (11744905_x_at) / RFU CCDC152 (11743942_at) / Fold change /veh CCDC152 (11743942_at) / RFU ECM1 (11717891_a_at) / Fold change /veh ECM1 (11717891_a_at) / RFU IL23R (11748794_a_at) / Fold change /veh IL23R (11748794_a_at) / RFU TNFAIP8L3 (11732012_x_at) / Fold change /veh TNFAIP8L3 (11732012_x_at) / RFU MBOAT4 (11741988_at) / Fold change /veh MBOAT4 (11741988_at) / RFU 11764193_at / Fold change /veh 11764193_at / RFU TMEM53 (11763286_at) / Fold change /veh TMEM53 (11763286_at) / RFU MAGEB2 (11727129_at) / Fold change /veh MAGEB2 (11727129_at) / RFU TMEM200A (11744735_a_at) / Fold change /veh TMEM200A (11744735_a_at) / RFU CCDC152 (11751479_a_at) / Fold change /veh CCDC152 (11751479_a_at) / RFU FAM211A (11726209_a_at) / Fold change /veh FAM211A (11726209_a_at) / RFU RGS16 (11746705_a_at) / Fold change /veh RGS16 (11746705_a_at) / RFU VCAN (11755009_s_at) / Fold change /veh VCAN (11755009_s_at) / RFU RHOB (11743442_s_at) / Fold change /veh RHOB (11743442_s_at) / RFU RGS16 (11720943_a_at) / Fold change /veh RGS16 (11720943_a_at) / RFU RGS16 (11720944_at) / Fold change /veh RGS16 (11720944_at) / RFU, VPS4B / Fold change vs veh, VPS4B / RFU, CREB1 / Fold change vs veh, CREB1 / RFU, DNAJC13 / Fold change vs veh, DNAJC13 / RFU, GNAQ / Fold change vs veh, GNAQ / RFU, CDK5R1 / Fold change vs veh, CDK5R1 / RFU, ZRANB3 / Fold change vs veh, ZRANB3 / RFU, CUL4A / Fold change vs veh, CUL4A / RFU, CCNY / Fold change vs veh, CCNY / RFU, UFL1 / Fold change vs veh, UFL1 / RFU, COG3 / Fold change vs veh, COG3 / RFU, DIAPH2 / Fold change vs veh, DIAPH2 / RFU, SKA2 / Fold change vs veh, SKA2 / RFU, AFF3 / Fold change vs veh, AFF3 / RFU, LMF1 / Fold change vs veh, LMF1 / RFU, IPO11 / Fold change vs veh, IPO11 / RFU, DFFB / Fold change vs veh, DFFB / RFU, FOXP1 / Fold change vs veh, FOXP1 / RFU, CARD8 / Fold change vs veh, CARD8 / RFU, STRN3 / Fold change vs veh, STRN3 / RFU, ADK / Fold change vs veh, ADK / RFU, RASSF2 / Fold change vs veh, RASSF2 / RFU, WIPF1 / Fold change vs veh, WIPF1 / RFU, LARP1B / Fold change vs veh, LARP1B / RFU, RASA1 / Fold change vs veh, RASA1 / RFU, RB1 / Fold change vs veh, RB1 / RFU, PPFIA1 / Fold change vs veh, PPFIA1 / RFU, MAT2A / Fold change vs veh, MAT2A / RFU, CCT5 / Fold change vs veh, CCT5 / RFU, WDR92 / Fold change vs veh, WDR92 / RFU, CUX1 / Fold change vs veh, CUX1 / RFU, TTC7A / Fold change vs veh, TTC7A / RFU, TMEM135 / Fold change vs veh, TMEM135 / RFU, DEPTOR / Fold change vs veh, DEPTOR / RFU, CPM / Fold change vs veh, CPM / RFU, DNAJB6 / Fold change vs veh, DNAJB6 / RFU, CACNA2D3 / Fold change vs veh, CACNA2D3 / RFU, DTX4 / Fold change vs veh, DTX4 / RFU, TFCP2 / Fold change vs veh, TFCP2 / RFU, GMCL1 /// GMCL1P1 / Fold change vs veh, GMCL1 /// GMCL1P1 / RFU, AEBP2 / Fold change vs veh, AEBP2 / RFU, SNHG1 /// SNORD22 /// SNORD25 /// SNORD26 /// SNORD27 /// SNORD28 /// SNORD29 /// SNORD31 / Fold change vs veh, SNHG1 /// SNORD22 /// SNORD25 /// SNORD26 /// SNORD27 /// SNORD28 /// SNORD29 /// SNORD31 / Fold change (Aza/veh), C12orf56 (ProbeSet 11735607_a_at) / Fold change (ACY-1035/veh), C12orf56 (ProbeSet 11735607_a_at) / Fold change (Aza/veh), FGFR1OP (ProbeSet 11751329_s_at) / Fold change (ACY-1035/veh), FGFR1OP (ProbeSet 11751329_s_at) / Fold change (Aza/veh), VPS36 (ProbeSet 11739960_a_at) / Fold change (ACY-1035/veh), VPS36 (ProbeSet 11739960_a_at) / RFU SYPL1 (11715823_x_at) / Fold change /veh SYPL1 (11715823_x_at) / RFU IGFBP7 (11715501_s_at) / Fold change /veh IGFBP7 (11715501_s_at) / RFU REEP3 (11722064_at) / Fold change /veh REEP3 (11722064_at) / RFU IGLL1 (11728026_x_at) / Fold change /veh IGLL1 (11728026_x_at): dose or concentration left out as unconfirmed
Settings: MV-4-11 cells, 48 hours

With Nc1ncn([C@@H]2O[C@H](CO)[C@@H](O)[C@H]2O)c(=O)n1 [azacitidine] the “Fold change /veh HIST1H1D (11736915_at)” value was 1.16.
